Reference: patent US20250215101A1, “DR5 Agonist and PLK1 Inhibitor or CDK Inhibitor Combination Therapy” (Inhibrx Biosciences, Inc., priority 2022, published 2025)

Key:
SW1353 = assay: Cell viability (CellTiter-Glo) cytotoxicity assay, INBRX-109 x CDK9 or MCL-1 inhibitor matrix, 48 h, chondrosarcoma line
Description: (§1) On day 1, cells were seeded as follows. Monolayer cultures of each cell line (chondrosarcoma: CAL-78, OUMS-27, SW1353, and H-EMC-SS; colorectal cancer: SW620; and synovial sarcoma: HS-SY-II) were harvested for compound screening. Culture medium was aspirated, and the cells were washed once with PBS. Accutase was added and flasks were incubated at 37° C. until cells became detached. An equal volume of complete medium was added to quench the Accutase, and the cells were then pipetted up and down several times to generate a homogenous single cell suspension. The density and viability of cells was determined by Trypan Blue using a TC20 Automated Cell Counter. Experimental cells were resuspended to a concentration of 0.17×10^6/mL in Eagle's Minimum Essential Medium (EMEM)/10% FBS/Anti-Anti media (complete EMEM) and seeded in the inner wells of 384-well luminescence plates at 15 mL/well (2,500/well final). Each cell line was plated in duplicate on separate plates. Outer wells were filled with 50 mL PBS, then plates were incubated in a humidified temperature-controlled 37° C. tissue culture incubator at 5% CO2 overnight for 16 hours.
(§2) These test articles were added, in duplicate, to each cell line. The plates were then centrifuged at 400×g for 1 minute, then incubated in a 37° C. humidity-controlled tissue culture incubator (5% CO2) for 48 hours.
(§3) After incubation with the test articles, viability measurements were taken, briefly. Plates were equilibrated to room temperature for 10 minutes, then 25 μL of CellTiter-Glo 2.0® was added to each well. Plates were spun for 1 minute at 400×g, then covered and incubated in the dark for 10 minutes at room temperature. Any visible bubbles were removed with 100% ethanol vapor, then luminescence (RLU) was read on the Spectra Max M5e plate reader, using the 384-well opaque plate setting and SoftMax® Pro v5.4 software with an integration time of 50 milliseconds. To determine the effect of test articles on cell viability, raw RLU values were exported to Excel and percent survival was calculated as a percentage of vehicle control (0.5% DMSO in EMEM), where the vehicle control is set at 100%. Data was graphed in GraphPad Prism 9.

SW620 = assay: Cell viability (CellTiter-Glo) cytotoxicity assay, INBRX-109 x CDK9 or MCL-1 inhibitor matrix, 48 h, colorectal cancer line
Description: as §1, §2, §3

[1] = test system: CAL-78, OUMS-27, SW1353, H-EMC-SS, SW620, HS-SY-II; assay: Cytotoxicity screens INBRX-109 + CDK9 or MCL-1 inhibitor, summary over the cell lines; assay type: cell-based; conditions: combination with INBRX-109
Source text: Data was graphed in GraphPad Prism 9.

H-EMC-SS = assay: Cell viability (CellTiter-Glo) cytotoxicity assay, INBRX-109 x CDK9 or MCL-1 inhibitor matrix, 48 h, chondrosarcoma line
Description: as §1, §2, §3

OUMS-27 = assay: as above
Description: as §1, §2, §3

CAL-78 = assay: as above
Description: as §1, §2, §3

HS-SY-II = assay: Cell viability (CellTiter-Glo) cytotoxicity assay, INBRX-109 x CDK9 or MCL-1 inhibitor matrix, 48 h, synovial sarcoma line
Description: as §1, §2, §3

CDK9 = CDK9 (Homo sapiens, UniProt P50750); conditions: cited from earlier work
Sequence of CDK9 (P50750 whole entry): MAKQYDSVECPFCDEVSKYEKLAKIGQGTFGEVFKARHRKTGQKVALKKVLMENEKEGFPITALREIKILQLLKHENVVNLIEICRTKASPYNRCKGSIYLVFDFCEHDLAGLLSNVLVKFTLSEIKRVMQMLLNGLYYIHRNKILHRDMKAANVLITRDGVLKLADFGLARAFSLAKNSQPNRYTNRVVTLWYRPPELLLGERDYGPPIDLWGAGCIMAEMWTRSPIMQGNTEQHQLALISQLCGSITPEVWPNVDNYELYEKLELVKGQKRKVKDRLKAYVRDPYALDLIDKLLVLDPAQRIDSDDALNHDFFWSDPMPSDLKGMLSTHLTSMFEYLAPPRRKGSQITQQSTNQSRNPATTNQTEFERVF
Sequence of CDK9 (O60563 whole entry partner): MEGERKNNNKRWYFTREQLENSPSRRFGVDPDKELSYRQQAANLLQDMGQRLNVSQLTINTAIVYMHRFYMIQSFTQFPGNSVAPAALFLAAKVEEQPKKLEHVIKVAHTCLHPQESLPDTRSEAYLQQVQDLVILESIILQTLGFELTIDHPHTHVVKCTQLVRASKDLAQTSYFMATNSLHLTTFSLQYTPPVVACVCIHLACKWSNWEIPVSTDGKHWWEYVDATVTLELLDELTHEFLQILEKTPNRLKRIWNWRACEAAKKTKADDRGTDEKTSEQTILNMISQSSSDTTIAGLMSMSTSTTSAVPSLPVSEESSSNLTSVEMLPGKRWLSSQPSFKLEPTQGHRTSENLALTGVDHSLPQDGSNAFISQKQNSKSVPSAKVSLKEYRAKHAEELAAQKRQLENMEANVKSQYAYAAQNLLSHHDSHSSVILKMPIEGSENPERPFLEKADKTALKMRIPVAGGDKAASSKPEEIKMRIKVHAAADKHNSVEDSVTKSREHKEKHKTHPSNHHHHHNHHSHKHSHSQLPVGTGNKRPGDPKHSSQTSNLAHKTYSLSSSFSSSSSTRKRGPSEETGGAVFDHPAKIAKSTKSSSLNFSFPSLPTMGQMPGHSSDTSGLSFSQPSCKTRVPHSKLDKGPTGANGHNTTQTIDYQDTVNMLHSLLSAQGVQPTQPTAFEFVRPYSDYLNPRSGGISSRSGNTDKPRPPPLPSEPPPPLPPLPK

[2] = concentrations of 125 nM or higher

SMILES: CN1CC[C@H](c2c(O)cc(O)c3c(=O)cc(-c4ccccc4Cl)oc23)[C@H](O)C1 [Flavopiridol]
- EC50 (SW1353; flavopiridol + 1 nM INBRX-109): 133 nM
- Max Cytotox (SW1353; flavopiridol + 1 nM INBRX-109): 88.3%
- EC50 (SW1353; flavopiridol only): 202 nM
- Max Cytotox at 125 nM (SW1353; flavopiridol only): 21.7%
- EC50 (SW620; flavopiridol + 1 nM INBRX-109): 50.2 nM
- Max Cytotox (SW620; flavopiridol + 1 nM INBRX-109): 98.7%
- EC50 (SW620; flavopiridol only): Unstable
- Max Cytotox at 125 nM (SW620; flavopiridol only): 21.7%
- cell killing by the combination [1]: increased cell killing on nearly every cancer cell line tested
- combination effect (shift in the killing curves of INBRX-109) [1, 2]: synergistic effect
- EC50 (H-EMC-SS; flavopiridol + 1 nM INBRX-109): 53.9 nM
- Max Cytotox (H-EMC-SS; flavopiridol + 1 nM INBRX-109): 99%
- EC50 (H-EMC-SS; flavopiridol only): 114 nM
- Max Cytotox at 125 nM (H-EMC-SS; flavopiridol only): 21.9%
- EC50 (OUMS-27; flavopiridol + 1 nM INBRX-109): 118 nM
- Max Cytotox (OUMS-27; flavopiridol + 1 nM INBRX-109): 87.8%
- EC50 (OUMS-27; flavopiridol only): 109 nM
- Max Cytotox at 125 nM (OUMS-27; flavopiridol only): 24.0%
- EC50 (CAL-78; flavopiridol + 1 nM INBRX-109): 115 nM
- EC50 (CAL-78; flavopiridol only): 146 nM
- Max Cytotox at 125 nM (CAL-78; flavopiridol only): 10.9%
- EC50 (HS-SY-II; flavopiridol + 1 nM INBRX-109): 103 nM
- Max Cytotox (HS-SY-II; flavopiridol + 1 nM INBRX-109): 95.1%
- EC50 (HS-SY-II; flavopiridol only): 108 nM
- Max Cytotox at 125 nM (HS-SY-II; flavopiridol only): 55.8%

SMILES: COC[C@@H](C)N[C@H]1CC[C@H](Nc2cc(-c3cccc(NCC4(C#N)CCOCC4)n3)c(Cl)cn2)CC1 [NVP-2]
- EC50 (SW1353; NVP-2 + 1 nM INBRX-109): 22.3 nM
- Max Cytotox (SW1353; NVP-2 + 1 nM INBRX-109): 79.5%
- EC50 (SW1353; NVP-2 only): 30.6 nM
- Max Cytotox at 125 nM (SW1353; NVP-2 only): 52.8%
- EC50 (SW620; NVP-2 + 1 nM INBRX-109): 4.91 nM
- Max Cytotox (SW620; NVP-2 + 1 nM INBRX-109): 98.7%
- EC50 (SW620; NVP-2 only): 12.6 nM
- Max Cytotox at 125 nM (SW620; NVP-2 only): 39.5%
- cell killing by the combination [1]: increased cell killing on nearly every cancer cell line tested
- combination effect (shift in the killing curves of INBRX-109) ([1]; concentrations higher than 25 nM): synergistic effect
- EC50 (H-EMC-SS; NVP-2 + 1 nM INBRX-109): 24.5 nM
- Max Cytotox (H-EMC-SS; NVP-2 + 1 nM INBRX-109): 98.7%
- EC50 (H-EMC-SS; NVP-2 only): 23.5 nM
- Max Cytotox at 125 nM (H-EMC-SS; NVP-2 only): 46.4%
- EC50 (OUMS-27; NVP-2 + 1 nM INBRX-109): 16.3 nM
- Max Cytotox (OUMS-27; NVP-2 + 1 nM INBRX-109): 88.5%
- EC50 (OUMS-27; NVP-2 only): 9 nM
- Max Cytotox at 125 nM (OUMS-27; NVP-2 only): 20.4%
- EC50 (CAL-78; NVP-2 + 1 nM INBRX-109): 26.4 nM
- Max Cytotox (CAL-78; NVP-2 + 1 nM INBRX-109): 92.4%
- EC50 (CAL-78; NVP-2 only): 23.2 nM
- Max Cytotox at 125 nM (CAL-78; NVP-2 only): 42.2%

SMILES: COc1cc(F)ccc1-c1cc(Nc2cc(CS(C)(=N)=O)ccn2)ncc1F (centres unmarked) [Enitociclib]
- EC50 (SW1353; enitociclib + 1 nM INBRX-109): 103 nM
- Max Cytotox (SW1353; enitociclib + 1 nM INBRX-109): 64.6%
- EC50 (SW1353; enitociclib only): 102 nM
- Max Cytotox at 125 nM (SW1353; enitociclib only): 28.0%
- EC50 (SW620; enitociclib + 1 nM INBRX-109): 39.3 nM
- Max Cytotox (SW620; enitociclib + 1 nM INBRX-109): 97.6%
- EC50 (SW620; enitociclib only): 25.8 nM
- Max Cytotox at 125 nM (SW620; enitociclib only): 27.3%
- cell killing by the combination [1]: increased cell killing on nearly every cancer cell line tested
- combination effect (shift in the killing curves of INBRX-109) [1, 2]: synergistic effect
- EC50 (H-EMC-SS; enitociclib + 1 nM INBRX-109): 114 nM
- Max Cytotox (H-EMC-SS; enitociclib + 1 nM INBRX-109): 99.2%
- EC50 (H-EMC-SS; enitociclib only): 124 nM
- Max Cytotox at 125 nM (H-EMC-SS; enitociclib only): 15.8%
- EC50 (OUMS-27; enitociclib + 1 nM INBRX-109): 90.4 nM
- Max Cytotox (OUMS-27; enitociclib + 1 nM INBRX-109): 81%
- EC50 (OUMS-27; enitociclib only): 51 nM
- Max Cytotox at 125 nM (OUMS-27; enitociclib only): 25.6%
- EC50 (CAL-78; enitociclib + 1 nM INBRX-109): 108 nM
- Max Cytotox (CAL-78; enitociclib + 1 nM INBRX-109): 90.8%
- EC50 (CAL-78; enitociclib only): 144 nM
- Max Cytotox at 125 nM (CAL-78; enitociclib only): 10.9%
- EC50 (HS-SY-II; enitociclib + 1 nM INBRX-109): 89.1 nM
- Max Cytotox (HS-SY-II; enitociclib + 1 nM INBRX-109): 94%
- EC50 (HS-SY-II; enitociclib only): 74 nM
- Max Cytotox at 125 nM (HS-SY-II; enitociclib only): 73.2%

SMILES: N[C@H]1CC[C@H](Nc2cc(-c3cccc(NCc4cccc(F)c4)n3)c(Cl)cn2)CC1 [i-CDK9]
- selectivity for CDK9 over other CDKs (CDK9): 600 fold
